Data: the supplement of paper PMC10627819

Key:
Experiment in all cases: fitness (endpoint OD595 vs no drug) (fraction); higher = more growth
S. aureus DSM 20231 = system: S. aureus DSM 20231
Summary of the method: (§1)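 With the first reading as background, OD595 was measured every 30 min for 14 h in 384-well plates kept at 37 °C and inoculated at OD595 0.01. TSB, LB Lennox or CY was the medium. Fitness is the optical density at the transition into stationary phase divided by the robust mean of no-drug control wells, with a cap of 1.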

S. aureus Newman = system: S. aureus Newman
Summary of the method: as §1

S. pneumoniae D39V = system: S. pneumoniae D39V
Summary of the method: as §1
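Also: OD595 on entry to stationary phase over no-drug wells; at most 1.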

CO[C@@]12[C@H](COC(N)=O)C3=C(C(=O)C(C)=C(N)C3=O)N1C[C@@H]1N[C@@H]12 [Mitomycin C] + CN[C@@H]1[C@H](O)[C@H](NC)[C@H]2O[C@@]3(O)C(=O)C[C@@H](C)O[C@H]3O[C@@H]2[C@H]1O [Spectinomycin]
fitness
Settings | first compound 0.001075 µg/mL | first compound 0.00215 µg/mL | first compound 0.0043 µg/mL | first compound 0.0156 µg/mL | first compound 0.0312 µg/mL | first compound 0.0625 µg/mL
S. aureus DSM 20231, partner 4 µg/mL | – | – | – | 0.726 | 0.729 | 0.67
S. aureus DSM 20231, partner 8 µg/mL | – | – | – | 0.705 | 0.733 | 0.62
S. aureus DSM 20231, partner 16 µg/mL | – | – | – | 0.687 | 0.667 | 0.57
S. aureus Newman, partner 4 µg/mL | – | – | – | 0.653 | 0.656 | 0.496
S. aureus Newman, partner 8 µg/mL | – | – | – | 0.662 | 0.684 | 0.432
S. aureus Newman, partner 16 µg/mL | – | – | – | 0.603 | 0.541 | 0.33
S. pneumoniae D39V, partner 4 µg/mL | 0.899 | 0.814 | 0.746 | – | – | –
S. pneumoniae D39V, partner 8 µg/mL | 0.916 | 0.824 | 0.647 | – | – | –
S. pneumoniae D39V, partner 16 µg/mL | 0.839 | 0.784 | 0.628 | – | – | –

fitness, one replicate
Settings | first compound 0.002 µg/mL | first compound 0.004 µg/mL | first compound 0.008 µg/mL | first compound 0.0156 µg/mL | first compound 0.0312 µg/mL | first compound 0.0625 µg/mL
S. aureus DSM 20231, partner 32 µg/mL | – | – | – | 0.614 | 0.475 | 0.258
S. aureus DSM 20231, partner 64 µg/mL | – | – | – | 0.0362 | 0.0235 | 0.0021
S. aureus Newman, partner 32 µg/mL | – | – | – | 0.294 | 0.158 | 0.034
S. aureus Newman, partner 64 µg/mL | – | – | – | 0.017 | 0.0135 | 0
S. pneumoniae D39V, partner 4 µg/mL | 0.903 | 0.851 | 0.638 | – | – | –
S. pneumoniae D39V, partner 8 µg/mL | 0.812 | 0.77 | 0.562 | – | – | –

CO[C@@]12[C@H](COC(N)=O)C3=C(C(=O)C(C)=C(N)C3=O)N1C[C@@H]1N[C@@H]12 [Mitomycin C] + Cc1ncc([N+](=O)[O-])n1CCO [Metronidazole]
Settings | fitness
S. aureus DSM 20231, first compound 0.0156 µg/mL, partner 0.625 µg/mL | 0.775
S. aureus DSM 20231, first compound 0.0156 µg/mL, partner 1.25 µg/mL | 0.873
S. aureus DSM 20231, first compound 0.0156 µg/mL, partner 2.5 µg/mL | 0.799
S. aureus DSM 20231, first compound 0.0312 µg/mL, partner 0.625 µg/mL | 0.756
S. aureus DSM 20231, first compound 0.0312 µg/mL, partner 1.25 µg/mL | 0.782
S. aureus DSM 20231, first compound 0.0312 µg/mL, partner 2.5 µg/mL | 0.779
S. aureus DSM 20231, first compound 0.0625 µg/mL, partner 0.625 µg/mL | 0.593
S. aureus DSM 20231, first compound 0.0625 µg/mL, partner 1.25 µg/mL | 0.606
S. aureus DSM 20231, first compound 0.0625 µg/mL, partner 2.5 µg/mL | 0.643
S. aureus Newman, first compound 0.0156 µg/mL, partner 0.625 µg/mL | 0.75
S. aureus Newman, first compound 0.0156 µg/mL, partner 1.25 µg/mL | 0.766
S. aureus Newman, first compound 0.0156 µg/mL, partner 2.5 µg/mL | 0.709
S. aureus Newman, first compound 0.0312 µg/mL, partner 0.625 µg/mL | 0.649
S. aureus Newman, first compound 0.0312 µg/mL, partner 1.25 µg/mL | 0.698
S. aureus Newman, first compound 0.0312 µg/mL, partner 2.5 µg/mL | 0.569
S. aureus Newman, first compound 0.0625 µg/mL, partner 0.625 µg/mL | 0.524
S. aureus Newman, first compound 0.0625 µg/mL, partner 1.25 µg/mL | 0.517
S. aureus Newman, first compound 0.0625 µg/mL, partner 2.5 µg/mL | 0.369
S. pneumoniae D39V, first compound 0.001075 µg/mL, partner 1.25 µg/mL | 0.972
S. pneumoniae D39V, first compound 0.001075 µg/mL, partner 2.5 µg/mL | 0.974
S. pneumoniae D39V, first compound 0.001075 µg/mL, partner 5 µg/mL | 0.93
S. pneumoniae D39V, first compound 0.002 µg/mL, partner 1.073 µg/mL | 0.853
S. pneumoniae D39V, first compound 0.002 µg/mL, partner 2.145 µg/mL | 0.812
S. pneumoniae D39V, first compound 0.002 µg/mL, partner 4.29 µg/mL | 0.791
S. pneumoniae D39V, first compound 0.00215 µg/mL, partner 1.25 µg/mL | 0.971
S. pneumoniae D39V, first compound 0.00215 µg/mL, partner 2.5 µg/mL | 0.984
S. pneumoniae D39V, first compound 0.00215 µg/mL, partner 5 µg/mL | 0.933
S. pneumoniae D39V, first compound 0.004 µg/mL, partner 1.073 µg/mL | 0.802
S. pneumoniae D39V, first compound 0.004 µg/mL, partner 2.145 µg/mL | 0.806
S. pneumoniae D39V, first compound 0.004 µg/mL, partner 4.29 µg/mL | 0.742
S. pneumoniae D39V, first compound 0.0043 µg/mL, partner 1.25 µg/mL | 0.857
S. pneumoniae D39V, first compound 0.0043 µg/mL, partner 2.5 µg/mL | 0.852
S. pneumoniae D39V, first compound 0.0043 µg/mL, partner 5 µg/mL | 0.836
S. pneumoniae D39V, first compound 0.008 µg/mL, partner 1.073 µg/mL | 0.72
S. pneumoniae D39V, first compound 0.008 µg/mL, partner 4.29 µg/mL | 0.735

fitness, S. aureus Newman, one replicate
Settings | first compound 0.0156 µg/mL | first compound 0.0312 µg/mL | first compound 0.0625 µg/mL
partner 0.781 µg/mL | 0.737 | 0.703 | 0.581
partner 1.562 µg/mL | 0.731 | 0.689 | 0.625
partner 3.124 µg/mL | 0.704 | 0.747 | 0.584
